{"source": "patent US20220074923A1", "about": "“METHODS OF IDENTIFYING PARKIN-MEDIATED MITOPHAGY ACTIVATING AGENTS” (THE GOVERNING COUNCIL OF THE UNIVERSITY OF TORONTO, priority 2018, published 2022)", "key": {"[1]": {"conditions": "in vivo; cited from earlier work"}, "HEK293 GFP Parkin cells [2]": {"test_system": "HEK293 GFP Parkin cells", "assay": "Immunoblotting of mitochondrial protein degradation after CCCP", "type": "cell-based", "description": "(a) HEK293 GFP Parkin cells were treated with varying doses of SR3677 for 2 hours prior to induction of mitophagy with 10 μM CCCP for one hour. The percentage of cells with mitochondrial Parkin increased in a dose-dependent manner. […] Cell lysates were harvested, proteins were separated by SDS-PAGE and immunoblotting was performed with anti-Mfn2 and anti-actin antibodies. (c) Ponceau VDAC1 levels in each sample normalized to Ponceau staining. (d) Mfn2/actin levels in CCCP treated cells. (e) Densitometry analysis was performed to quantify Mfn2 and VDAC1 levels in each sample (n=4 independent experiments).\nHEK293 GFP Parkin cells co-treated with 0.5 μM SR3677 or DMSO and 10 μM CCCP for the indicated time (hours). Cell lysates were separated by SDS-PAGE and immunoblotting was performed to assess turnover of IMM/matrix substrates (A) ATP5A, (B) UQCRC2 and (C) COXIV. Densitometry analysis was performed. Protein levels were normalized to Ponceau. Data is expressed as mean±s.e.m (n=6, 7 and 8 for a, b and c, respectively. 4) P-values were determined by paired student's t-test, *P<0.05.\nLysates were harvested using lysis buffer (0.1M Tris HCl, 0.01% SDS, pH 9) with 1× protease inhibitor cocktail (BioShop, PIC002.1). Lysates were then heated at 95° C. for 20 minutes with vortexing performed at 5-minute intervals. The BCA assay (Pierce, 23227) was performed to determine protein concentration, to standardize protein loading across samples to be compared. 12% SDS-PAGE gels were used to run samples to be analyzed for LC3 conversation and for Tom20 and 10% gels were run for all other samples. Transfer of proteins onto PVDF membrane (Immobilon, IPVH00010) was performed at 110V for 80 minutes or at 36V for 8 hours. Membranes were blocked with 5% skim milk in TBST (1×TBS, 0.1% Tween-20 [BioShop, 1M23298]) for 30 minutes prior to incubation in primary antibodies at a dilution of 1:1000 for all antibodies except anti-ROCK2 and anti-LC3, which were used at a dilution of 1:5000. Visualization of proteins was performed using ECL (BioRad, 11705062).\nDensitometry was performed by normalizing bands corresponding to the protein of interest to a loading control such as actin using ImageLab 6.0 software (BioRad)."}, "[3]": {"test_system": "differentiated SH-SY5Y cells", "assay": "Cell viability determination (ATP levels normalized to protein)", "type": "cell-based", "conditions": "24 hours", "description": "SH-SY5Y cells were differentiated according to previously established protocol consisting of sequential treatment with retinoic acid followed by brain-derived neurotrophic factor^10. Cells were then seeded into white 96-well plates with white bottom and allowed to adhere overnight. Varying doses of SR3677 were combined with 500 μM paraquat and administered for 24 hours. Controls treated with 0.5 μM SR3677, equivalent volume DMSO and paraquat alone were also included. Following 24-hour incubation, cell media was aspirated and THE lysis buffer (50 mM Tris-HCl, 100 mM NaCl, 0.1 mM EDTA) containing protease inhibitor cocktail was added to each well. Half of the lysate volume was removed and aliquoted into a separate 96-well plate. ATP levels were measured in the opaque plate using the ATP determination (ThermoFisher A22066) assay kit and protein concentrations were measured using the Pierce BCA (ThermoFisher #23225) assay kit. ATP levels were normalized to protein concentration and then by the ratio for cells treated with paraquat alone in a control well on each plate."}, "HEK293 GFP Parkin cells [4]": {"test_system": "HEK293 GFP Parkin cells", "assay": "High throughput small molecule screen for Parkin recruitment to mitochondria (high content imaging)", "type": "cell-based", "conditions": "4 μM, 16 h, then CCCP 2 h; rank out of 480; low rank = activator of Parkin recruitment, high rank = inhibitor", "description": "10 uL of 0.1 mg/mL Poly-D-Lys solution was added to 384-well plates for 5 minutes, followed by a PBS wash. Plates were dried for at least 2 hours. 50 μL of 600 000 HEK293 GFP Parkin cell/mL of DMEM was dispensed into each well. After 24 hours incubation to allow the cells to adhere, 200 nL of small molecules (or DMSO in columns 1, 2, 23 and 24) were pinned. Following a 16-hour incubation, 200 nL of 5 mM CCCP were added to all wells except columns 1 and 2, into which 200 nL of DMSO was added. Following 2-hour incubation, cells were fixed with 4% paraformaldehyde (PFA) and stained with 50 μL of 1 μg/mL DAPI solution for 15 minutes. After the final PBS wash, plates were ready for high content microscopy.\nImages were acquired on IN Cell Analyzer 6000 (GE Healthcare), equipped with sCMOS camera (2048×2048), and 20x/0.45 NA Plan Fluor objective (Nikon) in open aperture mode using 1×1 binning. Image analysis was performed using Columbus Image Analysis System (PerkinElmer). Nuclei were initially detected in DAPI channel, followed by whole cell segmentation in GFP channel. Using PhenoLOGIC machine learning plug-in, cells were split into 2 sub-populations: cells with even GFP-Parkin distribution and cells where GFP-Parkin was localized to mitochondria. The percentage of cells with mitochondrial GFP-Parkin was determined per well. The molecules were then rank ordered based on z-score, which is calculated using the formula: […]\nwhere x is the percentage of cells with mitochondrial GFP-Parkin for a specific small molecule, μ is the average percentage of cells with mitochondrial Parkin in positive control columns 23 and 24, where cells are treated with CCCP only.\nThese cell lines were screened across 2 biological replicates with compounds from the kinase inhibitor (n=480) and Prestwick (n=1120) collections. The 3-day screening protocol consisted of (1) seeding cells, (2) pinning small molecules at 4 μM concentration and (3) inducing mitophagy with CCCP, followed by processing of plates for high content imaging. Following image acquisition, DAPI staining was used to segment cells within each image. Supervised machine learning was used to classify cells into two classes: (1) cells with cytosolic Parkin distribution and (2) those with Parkin localized to mitochondria. […] Compounds which increased the proportion of class 2 cells across 2 biological replicates, compared to the CCCP-only treated cells (FIG. 10), as indicated by their z-score (FIG. 11), were considered hits."}, "HeLa cells": {"test_system": "HeLa cells", "assay": "HK2 distribution after mitochondrial damage", "type": "cell-based", "conditions": "HeLa cells which lack endogenous Parkin", "text": "Since HK2 is also a Parkin substrate, HeLa cells which lack endogenous Parkin were used to examine the effect of SR3677 treatment on HK2 distribution^43."}, "[5]": {"conditions": "0.5 μM co-treated with 10 μM CCCP"}}, "data": [{"compound": "CN(C)CCOc1cc(-c2cn[nH]c2)ccc1NC(=O)[C@@H]1COc2ccccc2O1", "note": "[SR3677]", "values": [{"measurement": "bioavailability", "setting": "[1]", "result": "poor bioavailability"}, {"measurement": "degradation of ATP5A", "setting": "HEK293 GFP Parkin cells [2]; [5]", "result": "increased the degradation"}, {"measurement": "degradation of COXIV", "setting": "HEK293 GFP Parkin cells [2]; [5]", "result": "increased the degradation"}, {"measurement": "degradation of UQCRC2", "setting": "HEK293 GFP Parkin cells [2]; [5]", "result": "enhanced"}, {"measurement": "fold lower concentration than Y39983 for comparable Mfn2 degradation", "setting": "HEK293 GFP Parkin cells [2]; 0.5 μM vs 10 μM", "result": 20, "unit": "fold"}, {"measurement": "turnover of VDAC1", "setting": "HEK293 GFP Parkin cells [2]; 0.5 μM, 10 μM CCCP", "result": "increased the turnover"}, {"measurement": "concentration administered to enhance Mfn2 degradation", "setting": "HEK293 GFP Parkin cells [2]; 10 μM CCCP", "result": 0.5, "unit": "µM"}, {"measurement": "Mfn2 degradation following CCCP", "setting": "HEK293 GFP Parkin cells [2]; 2 h pre-treatment, 10 μM CCCP, Y39983 10 μM, SR3677 0.5 μM", "result": "Increased degradation of Mfn2"}, {"measurement": "cell viability, compound alone", "setting": "[3]; 0.5 μM", "result": "did not affect cell viability"}, {"measurement": "viability of cells challenged with paraquat", "setting": "[3]; varying concentrations with 500 μM paraquat", "result": "improved the viability of cells challenged with paraquat in a dose-dependent manner"}, {"measurement": "rank in the kinase inhibitor library screen (rank order by z-score)", "setting": "HEK293 GFP Parkin cells [4]", "result": "71/480"}, {"measurement": "mitochondrial distribution of HK2 following mitochondrial damage", "setting": "HeLa cells", "result": "increases the mitochondrial distribution of HK2"}]}]}
